Laboratory results taken from patent publication US20090099195A1 (ASTRAZENECA AB, priority 2007, published 2009).

Molecular target: T1, hP2X3 (human Purinergic P2X receptors subtype 3), clone B (Homo sapiens, UniProt P56373)
T1 sequence (P56373 1-397): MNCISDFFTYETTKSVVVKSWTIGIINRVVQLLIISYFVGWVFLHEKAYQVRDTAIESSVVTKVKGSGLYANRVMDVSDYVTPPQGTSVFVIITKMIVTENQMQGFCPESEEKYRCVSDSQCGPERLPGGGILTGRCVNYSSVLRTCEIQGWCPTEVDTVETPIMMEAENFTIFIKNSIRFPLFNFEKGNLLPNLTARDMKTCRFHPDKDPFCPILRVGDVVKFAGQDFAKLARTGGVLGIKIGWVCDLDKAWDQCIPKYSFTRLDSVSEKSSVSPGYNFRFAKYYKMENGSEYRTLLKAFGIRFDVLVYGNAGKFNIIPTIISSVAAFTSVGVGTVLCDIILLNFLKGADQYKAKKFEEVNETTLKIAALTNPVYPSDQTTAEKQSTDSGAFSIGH
Assay: hP2X3 FLIPR calcium (Fluo-4) antagonist assay, clone B
Conditions: Human P2X3 FLIPR Clone B IC50 (nM), RLE cells expressing hP2X3 clone B (NM_002559); agonist 500 nM α,β-methylene-ATP

| IC50 [nM] | Compound |
| --- | --- |
| 4600 | CC(C)N1Cc2c(NCc3cnc4ccccc4c3)nc(N3CCCC3CN3CCOCC3)nc2C1=O (stereo not drawn) [Example 212, 6-isopropyl-2-[2-(morpholinomethyl)pyrrolidin-1-yl]-4-(3-quinolylmethylamino)-5H-pyrrolo[3,4-d]pyrimidin-7-one] |
| 4800 | CC(=O)N1CCN(c2nc(NC3CCCc4ccccc43)c3c(n2)C(=O)N(C(C)C)C3)CC1 (stereo not drawn) [Example 1, 2-(4-acetylpiperazin-1-yl)-6-isopropyl-4-(1,2,3,4-tetrahydronaphthalen-1-ylamino)-5,6-dihydro-7H-pyrrolo[3,4-d]pyrimidin-7-one] |
| 1100 | CC(=O)N1CCN(c2nc(N[C@@H](C)c3cnc4ccccc4c3)c3c(n2)C(=O)N(C(C)C)C3)CC1 [Example 234, (S)-2-(4-acetylpiperazin-1-yl)-6-isopropyl-4-(1-(quinolin-3-yl)ethylamino)-5H-pyrrolo[3,4-d]pyrimidin-7(6H)-one] |
| 9700 | CC(=O)N1CCN(c2nc(NCCc3ccc(C)c(C)c3)c3c(n2)C(=O)N(C(C)C)C3)CC1 [Example 55, 2-(4-acetylpiperazin-1-yl)-4-{[2-(3,4-dimethylphenyl)ethyl]amino}-6-isopropyl-5,6-dihydro-7H-pyrrolo[3,4-d]pyrimidin-7-one] |
| 330 | CCOc1ccc(CC2CCCN2c2nc(N3CCN(C(C)=O)CC3)nc3c2CN(C(C)C)C3=O)cc1 (stereo not drawn) [Example 289, 2-(4-acetylpiperazin-1-yl)-4-[2-[(4-ethoxyphenyl)methyl]pyrrolidin-1-yl]-6-isopropyl-5H-pyrrolo[4,3-e]pyrimidin-7-one] |
| 320 | CC(=O)N1CCN(c2nc(N[C@H](C)c3ccc4c(c3)CCO4)c3c(n2)C(=O)N(C(C)C)C3)CC1 [Example 160, (R)-2-(4-acetylpiperazin-1-yl)-4-(1-(2,3-dihydrobenzofuran-5-yl)ethylamino)-6-isopropyl-5H-pyrrolo[3,4-d]pyrimidin-7(6H)-one] |
| 260 | CC(C)N1Cc2c(NC(c3ccccc3)c3ccc(Cl)cc3)nc(N3CCOCC3)nc2C1=O (stereo not drawn) [Example 77, 4-{[(4-Chloro-phenyl)-phenyl-methyl]-amino}-6-isopropyl-2-morpholin-4-yl-5,6-dihydro-pyrrolo[3,4-d]pyrimidin-7-one] |
| 140 | CC(=O)N1CCN(c2nc(NC(c3ccc(Cl)cc3)C3CC3)c3c(n2)C(=O)N(C(C)C)C3)CC1 (stereo not drawn) [Example 27, 2-(4-acetylpiperazin-1-yl)-4-{[(4-chlorophenyl)(cyclopropyl)methyl]amino}-6-isopropyl-5,6-dihydro-7H-pyrrolo[3,4-d]pyrimidin-7-one] |
| 430 | CC(=O)N1CCN(c2nc3c(c(N(Cc4ccccc4)Cc4ccccc4)n2)CN(C(C)C)C3=O)CC1 [Example 95, 2-(4-Acetyl-piperazin-1-yl)-4-dibenzylamino-6-isopropyl-5,6-dihydro-pyrrolo[3,4-d]-pyrimidin-7-one] |
| 280 | CC(=O)N1CCN(c2nc(NC(C)(C)Cc3ccc(F)cc3)c3c(n2)C(=O)N(C(C)C(C)C)C3)CC1 (stereo not drawn) [Example 313, 2-(4-acetylpiperazin-1-yl)-4-(1-(4-fluorophenyl)-2-methylpropan-2-ylamino)-6-(3-methylbutan-2-yl)-5H-pyrrolo[3,4-d]pyrimidin-7(6H)-one] |
| 480 | CC(=O)N1CCN(c2nc3c(c(N4CCCC4c4ccc(N(C)C)cc4)n2)CN(C(C)C)C3=O)CC1 (stereo not drawn) [Example 267, 4-(4-acetylpiperazin-1-yl)-2-[2-(4-dimethylaminophenyl)pyrrolidin-1-yl]-8-propan-2-yl-3,5,8-triazabicyclo[4.3.0]nona-1,3,5-trien-7-one] |
| 3200 | CCN1CCN(c2nc(NC(c3ccccc3)c3ccccn3)c3c(n2)C(=O)N(C(C)C)C3)CC1 (stereo not drawn) [Example 119, 2-(4-ethylpiperazin-1-yl)-6-isopropyl-4-{[phenyl(pyridin-2-yl)methyl]amino}-5,6-dihydro-7H-pyrrolo[3,4-d]pyrimidin-7-one] |
